Measured values published in patent US20150285812A1, “Fluorescence-Labelled Fatty Acids and Uses Thereof” (SANOFI, priority 2012, published 2015).

Columns and labels:
[1] = log D7.4 determination by RP-HPLC, similar to the water/octanol partition coefficient method; assay type: physicochemical; details: pH 7.4, RP-HPLC C18, range −1 to +6
Method: log D7.4 values were determined by a method similar to the partition coefficient method in a water/octanol mixture and were carried out on an RP-HPLC from Waters Alliance (2795) having a C18 column (2×20 mm) with a gradient of morpholinesulfonic acid buffer (pH 7.4) and acetonitrile. The range was between −1 ([…]) to +6 (lipophilic).

HSA [2] = biological target: T1, HSA (Homo sapiens, UniProt P02768); assay: Fluorescence of NBD and dansyl dyes with increasing HSA (FRET effect, emission maxima); assay type: binding; details: for change in fluorescence intensity with increasing HSA concentration: HSA 1.56 to 200 μM, pH 7.4
T1 construct: purchased Sigma Aldrich A1887
T1 sequence (P02768 25-609): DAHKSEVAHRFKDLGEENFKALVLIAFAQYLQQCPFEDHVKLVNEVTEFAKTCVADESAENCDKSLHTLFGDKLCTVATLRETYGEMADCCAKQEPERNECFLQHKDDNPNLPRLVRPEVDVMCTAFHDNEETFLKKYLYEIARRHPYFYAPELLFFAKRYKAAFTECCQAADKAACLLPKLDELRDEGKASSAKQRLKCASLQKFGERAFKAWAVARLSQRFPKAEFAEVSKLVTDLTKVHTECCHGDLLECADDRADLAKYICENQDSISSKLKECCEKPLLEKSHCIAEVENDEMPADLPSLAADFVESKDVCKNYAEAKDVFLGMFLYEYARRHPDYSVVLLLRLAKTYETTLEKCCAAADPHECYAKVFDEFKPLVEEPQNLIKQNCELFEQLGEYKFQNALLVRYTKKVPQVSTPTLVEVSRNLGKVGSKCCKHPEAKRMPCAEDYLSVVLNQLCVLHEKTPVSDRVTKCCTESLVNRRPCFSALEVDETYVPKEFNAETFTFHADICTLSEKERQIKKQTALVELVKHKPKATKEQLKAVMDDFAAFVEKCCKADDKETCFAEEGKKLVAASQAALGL
Method: Absorption and fluorescence of fluorescence-labelled derivatives and HSA were carried out in a Varioskan™ microplate reader (Thermo Electron Corporation). 96 well (Costar, half area, flat bottom) microplates were used for absorption measurements and 384 well (Greiner Bio One, small volume, black) microplates from Greiner Bio One were used for fluorescence measurements. All measurements were carried out at pH 7.4 and room temperature.
5.00 ml of a 400 μM solution were prepared from the HSA stock solution. From this solution a geometric dilution series with 7 dilution steps, a dilution factor of 0.5 and a final volume of each concentration of 2.5 ml were prepared.
Defined concentrations of the fluorescence-labelled compounds were selected from the preceding experiment without HSA above and double-concentrated solutions thereof were prepared to take into account the later 1:1 dilution. For each fluorescence-labelled compound (12-17; 19-25) 1.00 ml of these double-concentrations was prepared. 50 μl of the dye solutions were introduced into a 96 well microplate and 50 μl each of the HSA dilution series were added. By mixing the solutions the concentrations of dye derivatives and the HSA solution were halved. The measurements of the absorption and fluorescence were carried out in analogy to the above experimental procedure without HSA.
In analogy to the absorption measurement the effect of HSA on the fluorescence of the dyes (12-17; 19-25) was determined. The same concentrations of NBD and dansyl dyes and the same concentration range for HSA as already described above were used.

HSA [3] = biological target: T1, HSA; assay: Displacement of NBD derivatives on HSA by natural fatty acids C6 to C16 (fluorescence); assay type: binding; design: key to displacement of NBD C8 (15) bound to HSA / displacement of NBD C10 (16) bound to HSA / displacement of NBD C12 (17) bound to HSA: + stands for displacement; − for no displacement; details: for relative binding affinity of the NBD dye for HSA: ranking among NBD C8, C10 and C12 from the competition experiments
Method: Dilution series for competition experiments with the fatty acids C6 to C16 were diluted with phosphate-buffered saline solution (DPBS buffer). Geometric dilution series of each fatty acid were prepared in 384 well microplates with a starting concentration of 2500 μM and a dilution factor of 0.33 and also 9 dilution steps. The final volume of each concentration was 80 μl. The plated-out fatty acids were stored in the deep freeze (−25° C.) until use.
For displacement experiments 2.50 ml of a 25 μM HSA solution were used per dye derivative. Due to the subsequent dilution steps the HSA concentration was doubled twice such that 2.50 ml of […] solution were prepared.
The dye concentrations were also doubled twice by the following dilution steps. 2.50 ml of each dye solution were needed. 2.10 ml of the respective dye solution were then mixed with 2.10 ml of the 100 μM HSA solution. The respective concentrations of the solutions halve here once. 50 μl of the mixture per well were introduced into a 96 well microplate.
The fatty acid microplates were brought to room temperature and 50 μl each of the dilution series were pipetted into the HSA-dye mixture. The concentrations of all solution constituents were thereby halved once again. In analogy to the experiments measuring the fluorescence of the fluorescence-labelled derivatives without HSA above, the solutions were pipetted from the 96 well microplate into a 384 well microplate. Absorption was not measured. The fluorescence measurement without a wavelength scan was carried out in analogy to the above-referenced experiment.
A concentration of 25 μM and a binding ratio of the NBD derivatives to HSA of 1:1 were employed for the displacement studies. For each dye derivative an NBD-HSA mixture with a concentration of 25 μM was prepared.

HSA [4] = biological target: T1, HSA; assay: Job plot of the fluorescence: stoichiometry of labelled fatty acids to HSA; assay type: binding; details: maximum in the curve or none
Method: The stoichiometry of NBD- and dansyl-labelled fatty acids bound to HSA was determined by Job plots, also called the “method of continuous variability” as different mole fractions of the respective binding partners are mixed with one another and then measured spectroscopically. Solutions of equimolar concentrations of HSA and dye were mixed such that the mole fractions of the substances were varied but the total molarity of the sample solution stayed constant. For short NBD derivatives C2 to C6 (12-14) no binding to HSA was confirmed, whereas binding ratios for long NBD derivatives C8 to C12 (15-17) to HSA were 1:1. For short dansyl derivatives C2 to C8 (19-22) binding ratios for HSA were 2:1, whereas the long dansyl derivatives C10 and C12 (23-24) bound to HSA in the ratio of 4:1. The finding that even dansyl C2 (19) was bound to HSA led to the question as to what extent the dansyl label itself is recognized by HSA. Because even dansyl methylamide (25) bound to HSA, even though it lacks a carboxyl group, it seems that the dye label could also bind to HSA.
For the Job plot the dye and HSA solutions were employed in equimolar amounts. 10.00 ml of 100 μM HSA solution and in each case 2.00 ml of a 100 μM dye solution (12-17; 19-25) were prepared from the above stock solutions. For the Job plot method the dye solutions were mixed with the HSA solution in different ratios as described below in Table 8. […] According to the same dilution scheme the dye solutions were also mixed with DPBS buffer for measuring the blank values of the fluorescence-labelled derivatives (see K. C. Ingham, Analytical Biochemistry 68 (1975) 660-663). […] Absorption was not measured. A fluorescence measurement without a wavelength scan was also carried out in analogy to the above experiment without HSA.
For NBD derivatives (12-17) and HSA 100 μM solutions were used. […] In total 11 solutions per dye derivative were prepared for fluorescence measurement by mixing the two binding partners. […] The fluorescence intensities were plotted against the mole fractions of the binding partners. […]

[5] = NBD compound 25 μM, λex = 480 nm
[6] = NBD derivatives 25 μM, 480-550 nm
[7] = NBD-HSA mixture 25 μM, 1:1, competitor natural fatty acid
[8] = dansyl compound 100 μM, λex = 330 nm

O=C(O)CCCCCCCCCNc1ccc([N+](=O)[O-])c2nonc12 [NBD C10 (16), 10-(7-Nitrobenzo[1,2,5]oxadiazol-4-ylamino)decanoic acid]
chromatographic logD [1]: 2.03 | Δλ, shift of emission maximum λem without HSA vs with HSA (HSA [2]; [5]): 16 nm | change in fluorescence intensity with increasing HSA concentration (HSA [2]; [6]): increase in fluorescence intensity | relative binding affinity of the NBD dye for HSA (HSA [3]): minimally smaller | relative binding affinity of the NBD dye for HSA (HSA [3]; listed as NBD C10): binding strength which lies between these two

CCCCCCCCCC(=O)O [FA C10, capric acid]
displacement of NBD C8 (15) bound to HSA (HSA [3]; [7]): + | displacement of NBD C8 (15) from HSA (HSA [3]; [7]): displaced | displacement of NBD C10 (16) bound to HSA (HSA [3]; [7]): unclear | displacement of NBD C12 (17) bound to HSA (HSA [3]; [7]): − | displacement of NBD C12 (17) from HSA (HSA [3]; [7]): no longer capable of displacing

CN(C)c1cccc2c(S(=O)(=O)NCC(=O)O)cccc12 [dansyl C2 (19), (5-Dimethylaminonaphthalene-1-sulfonylamino)ethanoic acid]
chromatographic logD [1]: 1.02 | Δλ, shift of emission maximum λem without HSA vs with HSA (HSA [2]; [8]): 94 nm | binding to HSA (qualitative) (HSA [4]): bound to HSA

CCCCCCCCCCCC(=O)O [FA C12, lauric acid]
displacement of NBD C8 (15) bound to HSA (HSA [3]; [7]): + | displacement of NBD C8 (15) from HSA (HSA [3]; [7]): displaced | displacement of NBD C10 (16) bound to HSA (HSA [3]; [7]): + | displacement of NBD C12 (17) bound to HSA (HSA [3]; [7]): + | displacement of NBD C12 (17) from HSA (HSA [3]; [7]): displaced

O=C(O)CNc1ccc([N+](=O)[O-])c2nonc12 [NBD C2 (12), 2-(7-nitrobenzo[1,2,5]oxadiazol-4-ylamino)ethanoic acid]
log D7.4 [1]: < −1 | Δλ, shift of emission maximum λem without HSA vs with HSA (HSA [2]; [5]): 0 nm | change in fluorescence intensity with increasing HSA concentration (HSA [2]; [6]): no changes in fluorescence intensity

O=C(O)CCCNc1ccc([N+](=O)[O-])c2nonc12 [NBD C4 (13), 4-(7-Nitrobenzo[1,2,5]oxadiazol-4-ylamino)butanoic acid]
log D7.4 [1]: −0.46 | Δλ, shift of emission maximum λem without HSA vs with HSA (HSA [2]; [5]): 2 nm | change in fluorescence intensity with increasing HSA concentration (HSA [2]; [6]): no changes in fluorescence intensity

O=C(O)CCCCCCCNc1ccc([N+](=O)[O-])c2nonc12 [NBD C8 (15), 8-(7-Nitrobenzo[1,2,5]oxadiazol-4-ylamino)octanoic acid]
chromatographic logD [1]: 1.29 | Δλ, shift of emission maximum λem without HSA vs with HSA (HSA [2]; [5]): 10 nm | change in fluorescence intensity with increasing HSA concentration (HSA [2]; [6]): greatest increase in fluorescence intensity | relative binding affinity of the NBD dye for HSA (HSA [3]): lowest affinity

CCCCCCCCCCCCCC(=O)O [FA C14, myristic acid]
displacement of NBD C8 (15) bound to HSA (HSA [3]; [7]): + | displacement of NBD C8 (15) from HSA (HSA [3]; [7]): displaced | displacement of NBD C10 (16) bound to HSA (HSA [3]; [7]): + | displacement of NBD C12 (17) bound to HSA (HSA [3]; [7]): +

CNS(=O)(=O)c1cccc2c(N(C)C)cccc12 [DMA (25), 5-Dimethylaminonaphthalene-1-sulfonic acid methylamide]
chromatographic logD [1]: 2.76 | Δλ, shift of emission maximum λem without HSA vs with HSA (HSA [2]; [8]): 80 nm | change in fluorescence intensity with increasing HSA concentration (HSA [2]; dansyl derivatives 100 μM, 330-560 nm): smallest fluorescence increase | binding to HSA (qualitative) (HSA [4]): binds to HSA | binding to HSA (qualitative) (HSA [4]; listed as dansyl methylamide (25)): bound to HSA

CCCCCC(=O)O [FA C6, caproic acid]
displacement of NBD C8 (15) bound to HSA (HSA [3]; [7]): − | displacement of NBD C8 (15) from HSA (HSA [3]; [7]): did not displace | displacement of NBD C10 (16) bound to HSA (HSA [3]; [7]): − | displacement of NBD C10 (16) from HSA (HSA [3]; [7]): not displaced | displacement of NBD C12 (17) bound to HSA (HSA [3]; [7]): −

CN(C)c1cccc2c(S(=O)(=O)NCCCCCC(=O)O)cccc12 [dansyl C6 (21), 6-(5-Dimethylaminonaphthalene-1-sulfonylamino)hexanoic acid]
chromatographic logD [1]: 1.56 | Δλ, shift of emission maximum λem without HSA vs with HSA (HSA [2]; [8]): 82 nm

O=C(O)CCCCCNc1ccc([N+](=O)[O-])c2nonc12 [NBD C6 (14), 6-(7-Nitrobenzo[1,2,5]oxadiazol-4-ylamino)hexanoic acid]
chromatographic logD [1]: 0.53 | Δλ, shift of emission maximum λem without HSA vs with HSA (HSA [2]; [5]): 0 nm | change in fluorescence intensity with increasing HSA concentration (HSA [2]; [6]): no changes in fluorescence intensity

CN(C)c1cccc2c(S(=O)(=O)NCCCCCCCC(=O)O)cccc12 [dansyl C8 (22), 8-(5-Dimethylaminonaphthalene-1-sulfonylamino)octanoic acid]
chromatographic logD [1]: 2.1 | Δλ, shift of emission maximum λem without HSA vs with HSA (HSA [2]; [8]): 74 nm

CN(C)c1cccc2c(S(=O)(=O)NCCCCCCCCCCCC(=O)O)cccc12 [dansyl C12 (24), 12-(5-Dimethylaminonaphthalene-1-sulfonylamino)dodecanoic acid]
chromatographic logD [1]: 3.49 | log D7.4 [1]: 3.49 | Δλ, shift of emission maximum λem without HSA vs with HSA (HSA [2]; [8]): 66 nm

CN(C)c1cccc2c(S(=O)(=O)NCCCC(=O)O)cccc12 [dansyl C4 (20), 4-(5-Dimethylaminonaphthalene-1-sulfonylamino)butanoic acid]
chromatographic logD [1]: 1.21 | Δλ, shift of emission maximum λem without HSA vs with HSA (HSA [2]; [8]): 88 nm

CN(C)c1cccc2c(S(=O)(=O)NCCCCCCCCCC(=O)O)cccc12 [dansyl C10 (23), 10-(5-Dimethylaminonaphthalene-1-sulfonylamino)decanoic acid]
chromatographic logD [1]: 2.74 | Δλ, shift of emission maximum λem without HSA vs with HSA (HSA [2]; [8]): 68 nm
